According to patent publication US8293781B2, “Indole derivatives having cPLA2 inhibiting activity and applications and production methods of the same” (Daiichi Sankyo Company, Limited, priority 2007, dated 2012):
Structures can show the parent of a compound that is named as a salt.

Target: T1, cPLA2 crudely purified from the cytoplasm fraction of U937 (Homo sapiens, UniProt P47712)
T1 construct: cPLA2 crudely purified from the cytoplasm fraction of U937; endogenous in cells; host or cells: U937 cells (cytoplasm fraction, crude purification)
T1 sequence (P47712 1-749): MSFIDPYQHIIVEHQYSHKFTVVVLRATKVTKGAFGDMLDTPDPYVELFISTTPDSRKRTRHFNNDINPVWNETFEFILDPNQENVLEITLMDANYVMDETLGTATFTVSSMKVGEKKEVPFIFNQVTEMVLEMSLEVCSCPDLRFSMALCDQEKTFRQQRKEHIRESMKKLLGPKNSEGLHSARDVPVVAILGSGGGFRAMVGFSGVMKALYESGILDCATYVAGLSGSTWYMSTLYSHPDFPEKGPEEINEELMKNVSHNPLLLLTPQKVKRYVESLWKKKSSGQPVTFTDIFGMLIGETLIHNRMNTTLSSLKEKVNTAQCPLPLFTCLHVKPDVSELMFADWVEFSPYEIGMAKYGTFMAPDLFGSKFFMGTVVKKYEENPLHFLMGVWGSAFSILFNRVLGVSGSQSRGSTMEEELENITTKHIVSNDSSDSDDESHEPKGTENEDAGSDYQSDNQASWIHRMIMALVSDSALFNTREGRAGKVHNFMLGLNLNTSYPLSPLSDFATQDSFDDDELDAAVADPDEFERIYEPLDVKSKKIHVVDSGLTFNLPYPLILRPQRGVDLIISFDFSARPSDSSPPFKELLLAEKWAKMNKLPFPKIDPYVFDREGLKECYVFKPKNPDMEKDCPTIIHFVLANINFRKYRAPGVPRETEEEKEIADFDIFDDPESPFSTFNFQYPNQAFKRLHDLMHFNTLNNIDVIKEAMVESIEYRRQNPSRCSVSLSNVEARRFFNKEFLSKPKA
Assay: Measurement of cPLA2 inhibitory activity (release of [14C]-arachidonic acid from phosphatidyl choline liposome)
Type: biochemical
Settings: not given
Procedure: The cPLA2 inhibitory activity was measured based on the method described in the document [See H. Naraba et al., J. Immunol. 160, 2974-2982 (1998)] and modified in the following way.
A DMSO solution of the present invitation compounds was diluted to 2.5 times the final concentration with the assay buffer (4 mM CaCl2, 2 mM dithiothreitol, 150 mM NaCl, 50 mM HEPES buffer solution (pH7.5)) containing 0.55 mg/ml BSA. To 20 μl of this, cPLA2 crudely purified from the cytoplasm fraction of U937 was added in an amount of 10 μl after dilution by an assay buffer solution containing 0.55 mg/ml BSA. A liposome prepared by ultrasonically treating L-α-1-palmitoyl-2-[14C]arachidonyl-phosphatidyl choline (made by PerkinElmer) and adjusted by the assay buffer solution to a concentration of phosphatidyl choline of 10 μM was added and stirred in by an amount of 20 μl and the mixture was reacted at 37° C. for 60 minutes. The [^14C]-arachidonic acid released due to the reaction was extracted based on the method described in the documents [see V. P. Dole et al., J. Biol. Chem. 235, 2595 (1960)], was added to Lumaplate® (made by PerkinElmer), dried, then measured by Topcount® (made by PerkinElmer). Except for not adding the present invention compounds, the same procedure was performed as the above to obtain the enzyme control. Except for not adding the invention compounds and not adding the enzyme, the same procedure was followed as above to obtain a negative control. The inhibiting activity was expressed as a percent (%) of the value minus the negative control with respect to the value of the enzyme control minus the negative control. From this, the 50% inhibiting concentration (IC50, μM) was calculated.

Compound	IC50 [µM]
O=C(O)/C=C/c1ccc2c(c1)c(C(=O)c1cccc3ccccc13)cn2-c1ccccc1 [Example 50, (2E)-3-[3-(1-naphthoyl)-1-phenyl-1H-indol-5-yl]-2-propenoic acid]	6.99
O=C(O)/C=C/c1ccc2c(c1)c(C(=O)Cc1ccc(F)cc1)cn2-c1ccccc1 [Example 60, (2E)-3-{3-[(4-fluorophenyl)acetyl]-1-phenyl-1H-indol-5-yl}-2-propenoic acid]	5.72
COc1ccc(CC(=O)c2cn(-c3ccccc3)c3ccc(CCC(=O)O)cc23)cc1 [Example 65, 3-{3-[(4-methoxyphenyl)acetyl]-1-phenyl-1H-indol-5-yl}propanoic acid]	1.91

Same assay, conditions: cPLA2 from U937 cytoplasm fraction, [14C]arachidonyl-phosphatidyl choline liposome, 37° C., 60 minutes; read-out: cPLA2 inhibitory activity, 50% inhibiting concentration IC50

Compound	IC50 [µM]
CN(C)C(=O)c1ccc(-n2cc(CCc3ccccc3)c3cc(CCC(=O)O)ccc32)cc1 [Example 310, 3-[1-{4-[(dimethylamino)carbonyl]phenyl}-3-(2-phenylethyl)-1H-indol-5-yl]propanoic acid]	0.354
O=C(O)CCc1ccc2c(c1)c(CCc1ccccc1)cn2-c1ccc(OCCOCc2ccccc2)cc1 [Example 342, 3-[1-{4-[2-(benzyloxy)ethoxy]phenyl}-3-(2-phenylethyl)-1H-indol-5-yl]propanoic acid]	0.002
CN(C)c1cccc(-n2cc(CCc3ccccc3)c3cc(CCC(=O)O)ccc32)c1 [Example 179, 3-{1-[3-(dimethylamino)phenyl]-3-(2-phenylethyl)-1H-indol-5-yl}propanoic acid]	0.182
O=C(O)CCc1ccc2c(c1)c(CCc1ccccc1)cn2-c1ccc2c(c1)OCCO2 [Example 233, 3-[1-(2,3-dihydro-1,4-benzodioxin-6-yl)-3-(2-phenylethyl)-1H-indol-5-yl]propanoic acid 2-amino-2-(hydroxymethyl)propane-1,3-diol salt (1:1)]	0.082
COc1ccc(-n2cc(CCc3ccccc3)c3cc(CCC(=O)O)ccc32)cn1 [Example 130, 3-[1-(6-methoxy-3-pyridinyl)-3-(2-phenylethyl)-1H-indol-5-yl]propanoic acid]	0.113
O=C(O)CCc1ccc2c(c1)c(CC1(c3ccccc3)CC1)cn2-c1ccccc1 [Example 41, 3-{1-phenyl-3-[(1-phenylcyclopropyl)methyl]-1H-indol-5-yl}propanoic acid 2-amino-2-(hydroxymethyl)propane-1,3-diol salt (1:1)]	0.634
Cc1ccccc1-n1cc(CCc2ccccc2)c2cc(CCC(=O)O)ccc21 [Example 99, 3-[1-(2-methylphenyl)-3-(2-phenylethyl)-1H-indol-5-yl]propanoic acid 2-amino-2-(hydroxymethyl)propane-1,3-diol salt (1:1)]	0.288
O=C(O)CCc1ccc2c(c1)c(CCc1ccccc1)cn2-c1cccc(Cl)c1 [Example 181, 3-[1-(3-chlorophenyl)-3-(2-phenylethyl)-1H-indol-5-yl]propanoic acid]	0.138
O=C(O)CCc1ccc2c(c1)c(CCc1ccccn1)cn2-c1cc(F)c(OCc2ccccc2)c(F)c1 [Example 297, 3-{1-[4-(benzyloxy)-3,5-difluorophenyl]-3-(2-pyridin-2-ylethyl)-1H-indol-5-yl}propanoic acid]	0.442
COCC(=O)Nc1ccc(-n2cc(CCc3ccccc3)c3cc(CCC(=O)O)ccc32)cc1 [Example 197, 3-[1-{4-[(methoxyacetyl)amino]phenyl}-3-(2-phenylethyl)-1H-indol-5-yl]propanoic acid]	0.157
O=C(O)/C=C/c1ccc2c(c1)c(CCc1ccccn1)cn2-c1ccc(O)cc1 [Example 271, (2E)-3-[1-(4-hydroxyphenyl)-3-(2-pyridin-2-ylethyl)-1H-indol-5-yl]-2-propenoic acid]	0.357
CC(C)(C)c1ccc(-n2cc(CCc3ccccc3)c3cc(CCC(=O)O)ccc32)cc1 [Example 103, 3-[1-(4-tert-butylphenyl)-3-(2-phenylethyl)-1H-indol-5-yl]propanoic acid 2-amino-2-(hydroxymethyl)propane-1,3-diol salt (1:1)]	0.419
O=C(O)CCc1ccc2c(c1)c(CCc1ccccc1)cn2-c1ccc(OCCO)cc1 [Example 228, 3-{1-[4-(2-hydroxyethoxy)phenyl]-3-(2-phenylethyl)-1H-indol-5-yl}propanoic acid]	0.004
CC(Cc1cn(-c2ccccc2)c2ccc(CCC(N)=O)cc12)c1ccccc1 (stereo not drawn) [Example 29, 3-[1-phenyl-3-(2-phenylpropyl)-1H-indol-5-yl]propanamide]	21.3
O=C(CCc1ccc2c(c1)c(CCc1ccccc1)cn2-c1ccc(O)cc1)NO [Example 284, N-hydroxy-3-[1-(4-hydroxyphenyl)-3-(2-phenylethyl)-1H-indol-5-yl]propanamide]	> 3
O=C(O)CCc1ccc2c(c1)c(CCc1ccccc1)cn2-c1ccc(C(F)(F)F)cn1 [Example 205, 3-{3-(2-phenylethyl)-1-[5-(trifluoromethyl)pyridin-2-yl]-1H-indol-5-yl}propanoic acid]	0.133
O=C(O)/C=C/c1ccc2c(c1)c(CCc1ccccc1)cn2-c1ccc(O)cc1 [Example 239, (2E)-3-[1-(4-hydroxyphenyl)-3-(2-phenylethyl)-1H-indol-5-yl]-2-propenoic acid]	0.054
O=Cc1cccc(-n2cc(CCc3ccccc3)c3cc(CCC(=O)O)ccc32)c1 [Example 175, 3-[1-(3-formylphenyl)-3-(2-phenylethyl)-1H-indol-5-yl]propanoic acid]	0.143
O=C(O)CCc1ccc2c(c1)c(CCc1ccccc1)cn2-c1ccc(CO)cc1 [Example 219, 3-{1-[4-(hydroxymethyl)phenyl]-3-(2-phenylethyl)-1H-indol-5-yl}propanoic acid]	0.147
COc1ccc(CCc2cn(-c3ccccc3)c3ccc(CCC(=O)O)cc23)cc1OC [Example 70, 3-{3-[2-(3,4-dimethoxyphenyl)ethyl]-1-phenyl-1H-indol-5-yl}propanoic acid 2-amino-2-(hydroxymethyl)propane-1,3-diol salt (1:1)]	1.36
O=C(O)/C=C/c1ccc2c(c1)c(Cc1ccccc1)cn2-c1ccccc1 [Example 7, (2E)-3-(3-benzyl-1-phenyl-1H-indol-5-yl)-2-propenoic acid]	1.04
COCCc1ccc(-n2cc(CCc3ccccc3)c3cc(CCC(=O)O)ccc32)cc1 [Example 201, 3-{1-[4-(2-methoxyethyl)phenyl]-3-(2-phenylethyl)-1H-indol-5-yl}propanoic acid]	0.219
c1ccc(CCc2cn(-c3ccccc3)c3ccc(CCc4nnn[nH]4)cc23)cc1 [Example 24, 1-phenyl-3-(2-phenylethyl)-5-[2-(1H-tetrazol-5-yl)ethyl]-1H-indole]	12.8
O=C(O)CCc1ccc2c(c1)c(CCc1ccccc1)cn2-c1ccc(C(F)(F)F)cc1 [Example 207, 3-{3-(2-phenylethyl)-1-[4-(trifluoromethyl)phenyl]-1H-indol-5-yl}propanoic acid]	0.064
O=C(O)CCc1ccc2c(c1)c(CCc1ccccn1)cn2-c1ccc(Oc2ccccc2)cc1 [Example 275, 3-[1-(4-phenoxyphenyl)-3-(2-pyridin-2-ylethyl)-1H-indol-5-yl]propanoic acid hydrochloride]	0.012
CCOc1ccc(-n2cc(CCc3ccccc3)c3cc(CCC(=O)N(C)OC)ccc32)cc1 [Example 116, 3-[1-(4-ethoxyphenyl)-3-(2-phenylethyl)-1H-indol-5-yl]-N-methoxy-N-methylpropanamide]	2.17
O=C(O)CCc1ccc2c(c1)c(CCc1ccccc1)cn2-c1ccc(C(=O)N2CCOCC2)cc1 [Example 312, 3-{1-[4-(morpholin-4-ylcarbonyl)phenyl]-3-(2-phenylethyl)-1H-indol-5-yl}propanoic acid]	0.404
